Experiments:
Assay type in all cases: functional
786-0 [1] = test: Growth inhibition of human 786-0 cells assessed as cell growth at 0.01 uM after 48 hrs by SRB assay relative to control; details: 786-0, 48 h, read-out: Activity
NCI-H460 = test: Growth inhibition of human NCI-H460 cells assessed as cell growth at 10 uM after 48 hrs by SRB assay relative to control; details: NCI-H460, 48 h, read-out: Activity
Malme-3M [2] = test: Growth inhibition of human MALME-3M cells assessed as cell growth at 0.1 uM after 48 hrs by SRB assay relative to control; details: read-out: Activity
786-0 [3] = test: Growth inhibition of human 786-0 cells assessed as cell growth at 100 uM after 48 hrs by SRB assay relative to control; details: 786-0, 48 h, read-out: Activity
OVCAR-4 = test: Growth inhibition of human OVCAR4 cells assessed as cell growth at 1 uM after 48 hrs by SRB assay relative to control; details: OVCAR-4, 48 h, read-out: Activity
COLO 205 = test: Cytotoxicity against human COLO205 cells assessed as growth inhibition after 48 hrs by SRB assay; details: COLO 205, 48 h
UACC-257 = test: Growth inhibition of human UACC257 cells assessed as cell growth at 100 uM after 48 hrs by SRB assay relative to control; details: UACC-257, 48 h, read-out: Activity
HOP-92 = test: Cytotoxicity against human HOP92 cells assessed as growth inhibition after 48 hrs by SRB assay; details: HOP-92, 48 h
LOX IMVI [4] = test: Growth inhibition of human LOXIMVI cells assessed as cell growth at 100 uM after 48 hrs by SRB assay relative to control; details: read-out: Activity
HCC 2998 = test: Growth inhibition of human HCC2998 cells assessed as cell growth at 10 uM after 48 hrs by SRB assay relative to control; details: HCC 2998, 48 h, read-out: Activity
KM12 = test: Cytotoxicity against human KM12 cells assessed as growth inhibition after 48 hrs by SRB assay; details: KM12, 48 h
UO-31 = test: Growth inhibition of human UO31 cells assessed as cell growth at 10 uM after 48 hrs by SRB assay relative to control; details: UO-31, 48 h, read-out: Activity
MDA-MB-468 = test: Growth inhibition of human MDA-MB-468 cells assessed as cell growth at 100 uM after 48 hrs by SRB assay relative to control; details: MDA-MB-468, 48 h, read-out: Activity
K562 = test: Growth inhibition of human K562 cells assessed as cell growth at 100 uM after 48 hrs by SRB assay relative to control; details: K562, 48 h, read-out: Activity
BT-549 = test: Growth inhibition of human BT549 cells assessed as cell growth at 1 uM after 48 hrs by SRB assay relative to control; details: BT-549, 48 h, read-out: Activity
UACC-62 = test: Growth inhibition of human UACC62 cells assessed as cell growth at 0.1 uM after 48 hrs by SRB assay relative to control; details: UACC-62, 48 h, read-out: Activity
SK-MEL-5 = test: Cytotoxicity against human SK-MEL-5 cells assessed as growth inhibition after 48 hrs by SRB assay; details: SK-MEL-5, 48 h
Malme-3M [5] = test: Growth inhibition of human MALME-3M cells assessed as cell growth at 100 uM after 48 hrs by SRB assay relative to control; details: read-out: Activity
SK-OV-3 = test: Growth inhibition of human SKOV3 cells assessed as cell growth at 0.1 uM after 48 hrs by SRB assay relative to control; details: SK-OV-3, 48 h, read-out: Activity
MDA-MB-435 [6] = test: Growth inhibition of human MDA-MB-435 cells assessed as cell growth at 10 uM after 48 hrs by SRB assay relative to control; details: MDA-MB-435, 48 h, read-out: Activity
CAKI-1 = test: Growth inhibition of human Caki1 cells assessed as cell growth at 100 uM after 48 hrs by SRB assay relative to control; details: CAKI-1, 48 h, read-out: Activity
M14 = test: Growth inhibition of human M14 cells assessed as cell growth at 10 uM after 48 hrs by SRB assay relative to control; details: M14, 48 h, read-out: Activity
EKVX = test: Cytotoxicity against human EKVX cells assessed as growth inhibition after 48 hrs by SRB assay
LOX IMVI [7] = test: Cytotoxicity against human LOXIMVI cells assessed as growth inhibition after 48 hrs by SRB assay
CCRF-CEM [8] = test: Growth inhibition of human CCRF-CEM cells assessed as cell growth at 0.1 uM after 48 hrs by SRB assay relative to control; details: read-out: Activity
SK-MEL-2 = test: Cytotoxicity against human SK-MEL-2 cells assessed as growth inhibition after 48 hrs by SRB assay; details: SK-MEL-2, 48 h
MDA-MB-435 [9] = test: Growth inhibition of human MDA-MB-435 cells assessed as cell growth at 1 uM after 48 hrs by SRB assay relative to control; details: MDA-MB-435, 48 h, read-out: Activity
U-251 = test: Growth inhibition of human U251 cells assessed as cell growth at 10 uM after 48 hrs by SRB assay relative to control; details: U-251, 48 h, read-out: Activity
CCRF-CEM [10] = test: Growth inhibition of human CCRF-CEM cells assessed as cell growth at 100 uM after 48 hrs by SRB assay relative to control; details: read-out: Activity
PC-3 = test: Growth inhibition of human PC3 cells assessed as cell growth at 0.1 uM after 48 hrs by SRB assay relative to control; details: PC-3, 48 h, read-out: Activity
[11] = read-out: LC50 (the source's name)
[12] = read-out: pLC50 (the source's name) (converted)

COc1ccc2c(c1)CCc1n[nH]c(-c3cc(OC)c(OC)c(OC)c3)c1-2
growth at 0.01 µM (786-0 [1]): 24%
growth at 10 µM (NCI-H460): -5%
growth at 0.1 µM (Malme-3M [2]): 48%
growth at 100 µM (786-0 [3]): -48%
growth at 1 µM (OVCAR-4): 40%
GI50 (COLO 205; read-out: GI50): < 0.01 µM
CC50 (COLO 205; [11]): 0.249 µM
TGI (COLO 205; read-out: TGI): < 0.01 µM
GI50 (COLO 205; read-out: pGI50 (converted)): < 0.01 µM
CC50 (COLO 205; [12]): 0.251 µM
TGI (COLO 205; read-out: pTGI): < 0.01 µM
growth at 100 µM (UACC-257): -49%
GI50 (HOP-92; read-out: GI50): < 0.01 µM
CC50 (HOP-92; [11]): 99.8 µM
TGI (HOP-92; read-out: TGI): 28.5 µM
GI50 (HOP-92; read-out: pGI50 (converted)): < 0.01 µM
CC50 (HOP-92; [12]): 100 µM
TGI (HOP-92; read-out: pTGI (converted)): 28.2 µM
growth at 100 µM (LOX IMVI [4]): -91%
growth at 10 µM (HCC 2998): 5%
GI50 (KM12; read-out: GI50): < 0.01 µM
CC50 (KM12; [11]): 46.5 µM
TGI (KM12; read-out: TGI): 11.8 µM
GI50 (KM12; read-out: pGI50 (converted)): < 0.01 µM
CC50 (KM12; [12]): 46.8 µM
TGI (KM12; read-out: pTGI (converted)): 11.7 µM
growth at 10 µM (UO-31): 13%
growth at 100 µM (MDA-MB-468): -39%
growth at 100 µM (K562): 7%
growth at 1 µM (BT-549): 3%
growth at 0.1 µM (UACC-62): 35%
GI50 (SK-MEL-5; read-out: GI50): < 0.01 µM
CC50 (SK-MEL-5; [11]): 24.2 µM
TGI (SK-MEL-5; read-out: TGI): < 0.01 µM
GI50 (SK-MEL-5; read-out: pGI50 (converted)): < 0.01 µM
CC50 (SK-MEL-5; [12]): 24 µM
TGI (SK-MEL-5; read-out: pTGI): < 0.01 µM
growth at 100 µM (Malme-3M [5]): -36%
growth at 0.1 µM (SK-OV-3): -2%
growth at 10 µM (MDA-MB-435 [6]): -38%
growth at 100 µM (CAKI-1): -20%
growth at 10 µM (M14): 2%
CC50 (EKVX; [11]): > 100 µM
TGI (EKVX; read-out: TGI): 39 µM
CC50 (EKVX; [12]): > 100 µM
TGI (EKVX; read-out: pTGI (converted)): 38.9 µM
GI50 (LOX IMVI [7]; read-out: GI50): < 0.01 µM
CC50 (LOX IMVI [7]; [11]): 38.3 µM
TGI (LOX IMVI [7]; read-out: TGI): 11.8 µM
GI50 (LOX IMVI [7]; read-out: pGI50 (converted)): < 0.01 µM
CC50 (LOX IMVI [7]; [12]): 38 µM
TGI (LOX IMVI [7]; read-out: pTGI (converted)): 11.7 µM
growth at 0.1 µM (CCRF-CEM [8]): 42%
GI50 (SK-MEL-2; read-out: GI50): < 0.01 µM
LC50 (SK-MEL-2; read-out: LC50): 98.7 µM
TGI (SK-MEL-2; read-out: TGI): 26.8 µM
GI50 (SK-MEL-2; read-out: pGI50 (converted)): < 0.01 µM
LC50 (SK-MEL-2; read-out: pLC50 (converted)): 97.7 µM
TGI (SK-MEL-2; read-out: pTGI (converted)): 26.9 µM
growth at 1 µM (MDA-MB-435 [9]): -35%
growth at 10 µM (U-251): 5%
growth at 100 µM (CCRF-CEM [10]): 25%
growth at 0.1 µM (PC-3): 19%
